Source: EP0846119B1, “THIENOPYRIMIDINE DERIVATIVES, THEIR PRODUCTION AND USE AS ENDOTHELIN ANTAGONISTS” (Takeda Chemical Industries, Ltd., priority 1995, dated 1997)

How the values were obtained:
[1] = target: T1, human endothelin-B (ETB) receptors (Homo sapiens, UniProt P24530); assay: Binding Test to ETB receptor expressed in an insect cell Sf9 ([125I]endothelin-1 displacement); conditions: Sf9 membrane fractions; [125I]endothelin-1; 25°C, 60 minutes; concentration causing PMB=50%; read-out: IC50 value: µM Human endotherin-B receptor
T1 construct: made in house; host or cells: Sf9 insect cells (membrane fractions)
T1 sequence (P24530 27-442): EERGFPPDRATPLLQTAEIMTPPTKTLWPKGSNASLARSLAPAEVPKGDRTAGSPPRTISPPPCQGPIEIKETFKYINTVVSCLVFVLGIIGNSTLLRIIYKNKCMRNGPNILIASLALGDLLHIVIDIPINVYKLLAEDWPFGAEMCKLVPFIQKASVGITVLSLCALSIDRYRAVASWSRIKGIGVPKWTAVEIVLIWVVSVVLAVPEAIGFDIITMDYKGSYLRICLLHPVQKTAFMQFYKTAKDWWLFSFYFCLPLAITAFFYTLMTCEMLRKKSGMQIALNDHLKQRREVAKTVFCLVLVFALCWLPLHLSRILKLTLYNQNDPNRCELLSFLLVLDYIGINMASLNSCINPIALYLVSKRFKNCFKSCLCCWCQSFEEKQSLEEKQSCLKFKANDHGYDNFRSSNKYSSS
Procedure: Binding Test to ETB receptor expressed in an insect cell Sf9:
(§1) Endothelin (ET) receptors were prepared by diluting fractions of insect cell (Sf9) membrane having human endothelin-B (ETB) receptors expressed, with an assay buffer {200 mM Tris-HCl, 2 mM EGTA (ethylenegiycol bis(2-aminoethylether) tetra acetic acid), 5 mM magnesium acetate, 0.1% BSA (bovine serum albumin), 0.03% NaN3, 0.5 mM PMSF(phenyl methyl sulfonyl fluoride), 20 µg/ml leupeptin, 4 µg/ml E-64 (products of the Peptide Institute), 1 µg/ml pepstatin, (pH 7.2)} respectively in a concentration of 1.4 µg/ml in the former case and 0.7 µg/ml in the latter case.
To 100 µl of each portion was added 5 nM[^125I] endothelin-1 (2 µl). A dimethylsulfoxide solution (3 µl) of the sample was added thereto and incubated at 25°C fpr 60 minutes.
And, to determine the maximum binding amount (B0) and non-specific binding amount (NSB), lots to which a dimethyl sulfoxide solution (3 µl) or a dimethyl sulfoxide solution (3 µl) containing endothelin-1 (10^-5M) had been added, were also incubated.
These lots were supplemented with 0.05% CHAPS(3-[(3-chloroamidopropyl)dimethylammonio]-1-propanesulfonate)-assay buffer (1.5 ml), subjected to filtration through a glass fiber filter GF/F (trade name; product of Whatman Ltd. (England)), and then washed with the same buffer (1.5 ml).
(§2) Radioactivity on the filter was counted in a gamma-counter to determine the Percent Maximum Binding (PMB) in accordance with the aforesaid calculation formula. The concentration causing PMB=50% was determined as IC50 value.

[2] = target: T2, human endothelin-A (ETA) receptors (Homo sapiens, UniProt P25101); assay: Binding Test to ETA receptor expressed in an insect cell Sf9 ([125I]endothelin-1 displacement); conditions: Sf9 membrane fractions; [125I]endothelin-1; 25°C, 60 minutes; concentration causing PMB=50%; read-out: IC50 value: µM Human endotherin-A receptor
T2 construct: made in house; host or cells: Sf9 insect cells (membrane fractions)
T2 sequence (P25101 21-427): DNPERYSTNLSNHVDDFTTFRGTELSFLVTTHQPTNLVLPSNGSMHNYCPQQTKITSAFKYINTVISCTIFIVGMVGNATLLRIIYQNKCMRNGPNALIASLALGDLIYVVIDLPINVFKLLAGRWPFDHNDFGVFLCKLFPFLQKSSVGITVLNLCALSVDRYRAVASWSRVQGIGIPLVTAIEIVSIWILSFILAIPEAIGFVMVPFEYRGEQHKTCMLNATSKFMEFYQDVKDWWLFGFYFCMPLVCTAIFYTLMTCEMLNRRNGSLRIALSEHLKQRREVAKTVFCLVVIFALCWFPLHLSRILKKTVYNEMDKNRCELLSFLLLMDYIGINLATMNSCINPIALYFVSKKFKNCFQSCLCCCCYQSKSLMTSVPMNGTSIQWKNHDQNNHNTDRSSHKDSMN
Procedure: Binding Test to ETA receptor expressed in an insect cell Sf9:
as §1, with “endothelin-A (ETA)” for “endothelin-B (ETB)”, “{20” for “{200”, “(ethyleneglycol bls(2-aminoethylether)” for “(ethylenegiycol bis(2-aminoethylether)”, “PMSF (phenyl” for “PMSF(phenyl”, “Institute, Japan),” for “Institute),”, “latte” for “latter”
To 100 µl of each portion was added 5 nM[^125I] endothelin-1 (2 µl). A dimethylsulfoxide solution (3 µl) of the test compound was added thereto and incubated at 25°C for 60 minutes.
And, to determine the maximum binding amount (B0) and non-specific binding amount (NSB), lots to which a dimethyl sulfoxide solution (3 µl) or a dimethyl sulfoxide solution (3 µl) containing endothelin-1 (10^-3M) had been added, were also incubated.
These lots were supplemented with 0.05% CHAPS(3-[(3-chloroamidopropyl)dimethylammonio]-1-propanesulfonate)-assay buffer (1.5 ml), subjected to filtration through a glass fiber filter GF/F (trade name; product of Whatman Ltd. (England)), and then washed with the same buffer (1.5 ml)).
as §2

Row | IC50 [1] [µM] | IC50 [2] [µM] | Compound
1 | 0.047 | 0.022 | CCCS(=O)(=O)NCc1c(-c2ccc(OCOC)cc2)sc2c1c(=O)n(CC(=O)O)c(=O)n2Cc1ccccc1SC [11(17)]
2 | 0.22 | 0.018 | CCCOc1ccc(-c2sc3c(c2CNS(C)(=O)=O)c(=O)n(CC(=O)O)c(=O)n3Cc2ccccc2SC)cc1 [11(7), 2,4(1H,3H)-Dioxo-6-(4-propoxyphenyl)-1-(2-methylthiobenzyl)-5-(methanesulfonamidomethyl)-thieno[2,3-d]pyrimidine-3-acetic acid]
3 | 0.11 | 0.015 | CCCOc1ccc(-c2sc3c(c2CNS(=O)(=O)CC)c(=O)n(CC(=O)O)c(=O)n3Cc2ccccc2SC)cc1 [11(9), 2,4(1H,3H)-Dioxo-6-(4-propoxyphenyl)-1-(2-methylthiobenzyl)-5-(ethanesulfonamidomethyl)-thieno[2,3-d]pyrimidine-3-acetic acid]
4 | 0.094 | 0.011 | CCCOc1ccc(-c2sc3c(c2CNS(=O)(=O)C(C)C)c(=O)n(CC(=O)O)c(=O)n3Cc2ccccc2SC)cc1 [11(15), 2,4(1H,3H)-Dioxo-6-(4-propoxyphenyl)-1-(2-methylthiobenzyl)-5-(isopropanesulfonamidomethyl)-thieno[2,3-d]pyrimidine-3-acetic acid]
5 | 0.09 | 0.0066 | COCOc1ccc(-c2sc3c(c2CNS(=O)(=O)C(C)C)c(=O)n(CC(=O)O)c(=O)n3Cc2ccccc2SC)cc1 [11(11), 2,4(1H,3H)-Dioxo-6-(4-methoxymethoxyphenyl)-1-(2-methylthiobenzyl)-5-(isopropanesulfonamidomethyl)thieno[2,3-d]pyrimidine-3-acetic acid]
